Key:
Assay in all cases: radiometric filter-binding kinase assay, Kinase HotSpot
Conditions in all cases: compound 0.5 µM; ATP 10 µM
CAMK2B (human) = CAMK2B (human) (UniProt Q13554)
RPS6KB1 (human) = RPS6KB1 (human) (UniProt P23443)
DAPK1 (human) = DAPK1 (human) (UniProt P53355)
TGFBR1 (human) = TGFBR1 (human) (UniProt P36897)
LTK (human) = LTK (human) (UniProt P29376)
MAPK3 (human) = MAPK3 (human) (UniProt P27361)
MAP3K7 TAB1 (human) = MAP3K7 TAB1 (human) (UniProt O43318+Q15750)
STK33 (human) = STK33 (human) (UniProt Q9BYT3)
PTK2 (human) = PTK2 (human) (UniProt Q05397)
RPS6KA2 KD1 KD2 (human) = RPS6KA2 KD1 KD2 (human) (UniProt Q15349)
CAMK1 (human) = CAMK1 (human) (UniProt Q14012)
RIPK2 (human) = RIPK2 (human) (UniProt O43353)
CSNK2A2 (human) = CSNK2A2 (human) (UniProt P19784)
AKT3 (human) = AKT3 (human) (UniProt Q9Y243)
PKN1 (human) = PKN1 (human) (UniProt Q16512)
STK17A (human) = STK17A (human) (UniProt Q9UEE5)
CAMK1G (human) = CAMK1G (human) (UniProt Q96NX5)
CDK6 CCND1 (human) = CDK6 CCND1 (human) (UniProt Q00534+P24385)
PHKG1 (human) = PHKG1 (human) (UniProt Q16816)
CAMK2D (human) = CAMK2D (human) (UniProt Q13557)
DYRK2 (human) = DYRK2 (human) (UniProt Q92630)
CDK9 CCNK (human) = CDK9 CCNK (human) (UniProt O75909+P50750)
MAPK1 (human) = MAPK1 (human) (UniProt P28482)
IRAK4 (human) = IRAK4 (human) (UniProt Q9NWZ3)
TXK (human) = TXK (human) (UniProt P42681)
MAP4K4 (human) = MAP4K4 (human) (UniProt O95819)
MAP3K9 (human) = MAP3K9 (human) (UniProt P80192)
CDK5 CDK5R1 p35 (human) = CDK5 CDK5R1 p35 (human) (UniProt Q00535+Q15078)
PIM2 (human) = PIM2 (human) (UniProt Q9P1W9)
BRSK2 (human) = BRSK2 (human) (UniProt Q8IWQ3)
EPHA4 (human) = EPHA4 (human) (UniProt P54764)
TEK (human) = TEK (human) (UniProt Q02763)
AURKC (human) = AURKC (human) (UniProt Q9UQB9)
MAP3K5 (human) = MAP3K5 (human) (UniProt Q99683)
CDK1 CCNB1 (human) = CDK1 CCNB1 (human) (UniProt P06493+P14635)
STK4 (human) = STK4 (human) (UniProt Q13043)
CSK (human) = CSK (human) (UniProt P41240)
FES (human) = FES (human) (UniProt P07332)
PRKCZ (human) = PRKCZ (human) (UniProt Q05513)
AXL (human) = AXL (human) (UniProt P30530)
RAF1 (human) = RAF1 (human) (UniProt P04049)

Sequence of CDK6 CCND1 (human) (P24385 whole entry, looked up): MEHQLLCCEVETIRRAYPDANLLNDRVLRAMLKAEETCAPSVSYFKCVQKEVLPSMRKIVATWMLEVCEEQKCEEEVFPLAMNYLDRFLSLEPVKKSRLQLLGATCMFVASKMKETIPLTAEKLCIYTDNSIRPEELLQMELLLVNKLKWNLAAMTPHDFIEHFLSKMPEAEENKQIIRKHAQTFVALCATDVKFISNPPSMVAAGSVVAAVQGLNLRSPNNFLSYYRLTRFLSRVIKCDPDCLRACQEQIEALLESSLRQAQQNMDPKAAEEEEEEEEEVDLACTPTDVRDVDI
Sequence of CDK6 CCND1 (human) (Q00534 whole entry, looked up): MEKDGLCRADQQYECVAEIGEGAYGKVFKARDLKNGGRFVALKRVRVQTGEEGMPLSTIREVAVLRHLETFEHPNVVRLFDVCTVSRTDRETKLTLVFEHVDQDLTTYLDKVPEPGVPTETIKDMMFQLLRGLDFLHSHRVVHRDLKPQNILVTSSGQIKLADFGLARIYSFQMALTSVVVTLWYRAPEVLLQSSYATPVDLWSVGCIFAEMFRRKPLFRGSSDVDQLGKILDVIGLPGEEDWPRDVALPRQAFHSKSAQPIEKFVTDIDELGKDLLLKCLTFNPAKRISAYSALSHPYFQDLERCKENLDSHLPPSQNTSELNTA
Sequence of EPHA4 (human) (P54764 whole entry, looked up): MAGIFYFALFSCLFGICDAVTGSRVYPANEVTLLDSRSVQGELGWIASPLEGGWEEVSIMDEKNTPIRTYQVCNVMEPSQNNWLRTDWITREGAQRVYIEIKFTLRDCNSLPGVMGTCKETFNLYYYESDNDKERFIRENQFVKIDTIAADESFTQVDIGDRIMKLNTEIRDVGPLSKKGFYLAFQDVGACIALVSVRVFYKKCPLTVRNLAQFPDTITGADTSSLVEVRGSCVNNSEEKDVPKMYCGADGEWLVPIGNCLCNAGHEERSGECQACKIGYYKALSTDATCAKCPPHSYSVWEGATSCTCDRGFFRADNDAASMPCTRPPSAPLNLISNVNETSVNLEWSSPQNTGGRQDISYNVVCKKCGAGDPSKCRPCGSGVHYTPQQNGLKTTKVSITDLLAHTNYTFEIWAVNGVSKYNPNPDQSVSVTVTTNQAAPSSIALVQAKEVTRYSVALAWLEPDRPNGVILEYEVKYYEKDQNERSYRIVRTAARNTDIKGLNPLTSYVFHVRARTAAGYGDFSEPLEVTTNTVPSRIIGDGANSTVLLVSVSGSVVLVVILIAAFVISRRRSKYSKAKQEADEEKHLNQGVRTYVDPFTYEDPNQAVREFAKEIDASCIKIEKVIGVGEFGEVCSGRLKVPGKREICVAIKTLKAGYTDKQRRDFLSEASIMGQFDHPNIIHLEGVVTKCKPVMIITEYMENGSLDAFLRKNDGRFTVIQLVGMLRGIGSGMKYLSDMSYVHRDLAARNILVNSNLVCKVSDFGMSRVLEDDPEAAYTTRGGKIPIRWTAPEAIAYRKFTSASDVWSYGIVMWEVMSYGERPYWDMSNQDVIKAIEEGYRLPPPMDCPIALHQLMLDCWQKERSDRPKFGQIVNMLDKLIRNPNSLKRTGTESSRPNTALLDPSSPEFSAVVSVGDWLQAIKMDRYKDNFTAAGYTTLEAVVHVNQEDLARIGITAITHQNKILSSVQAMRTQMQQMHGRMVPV
Sequence of STK17A (human) (Q9UEE5 whole entry, looked up): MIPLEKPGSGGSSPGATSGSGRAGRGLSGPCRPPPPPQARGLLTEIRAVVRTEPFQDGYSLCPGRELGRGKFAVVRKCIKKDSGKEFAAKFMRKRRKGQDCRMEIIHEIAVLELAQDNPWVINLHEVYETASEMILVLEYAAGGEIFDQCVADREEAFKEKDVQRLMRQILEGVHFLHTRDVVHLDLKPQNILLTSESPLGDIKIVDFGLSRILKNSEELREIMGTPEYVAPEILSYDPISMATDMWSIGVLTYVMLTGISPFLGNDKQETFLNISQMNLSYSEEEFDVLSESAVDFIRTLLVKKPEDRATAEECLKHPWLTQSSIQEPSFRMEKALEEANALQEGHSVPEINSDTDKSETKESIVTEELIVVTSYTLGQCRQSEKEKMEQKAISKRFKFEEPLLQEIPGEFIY
Sequence of MAP3K5 (human) (Q99683 whole entry, looked up): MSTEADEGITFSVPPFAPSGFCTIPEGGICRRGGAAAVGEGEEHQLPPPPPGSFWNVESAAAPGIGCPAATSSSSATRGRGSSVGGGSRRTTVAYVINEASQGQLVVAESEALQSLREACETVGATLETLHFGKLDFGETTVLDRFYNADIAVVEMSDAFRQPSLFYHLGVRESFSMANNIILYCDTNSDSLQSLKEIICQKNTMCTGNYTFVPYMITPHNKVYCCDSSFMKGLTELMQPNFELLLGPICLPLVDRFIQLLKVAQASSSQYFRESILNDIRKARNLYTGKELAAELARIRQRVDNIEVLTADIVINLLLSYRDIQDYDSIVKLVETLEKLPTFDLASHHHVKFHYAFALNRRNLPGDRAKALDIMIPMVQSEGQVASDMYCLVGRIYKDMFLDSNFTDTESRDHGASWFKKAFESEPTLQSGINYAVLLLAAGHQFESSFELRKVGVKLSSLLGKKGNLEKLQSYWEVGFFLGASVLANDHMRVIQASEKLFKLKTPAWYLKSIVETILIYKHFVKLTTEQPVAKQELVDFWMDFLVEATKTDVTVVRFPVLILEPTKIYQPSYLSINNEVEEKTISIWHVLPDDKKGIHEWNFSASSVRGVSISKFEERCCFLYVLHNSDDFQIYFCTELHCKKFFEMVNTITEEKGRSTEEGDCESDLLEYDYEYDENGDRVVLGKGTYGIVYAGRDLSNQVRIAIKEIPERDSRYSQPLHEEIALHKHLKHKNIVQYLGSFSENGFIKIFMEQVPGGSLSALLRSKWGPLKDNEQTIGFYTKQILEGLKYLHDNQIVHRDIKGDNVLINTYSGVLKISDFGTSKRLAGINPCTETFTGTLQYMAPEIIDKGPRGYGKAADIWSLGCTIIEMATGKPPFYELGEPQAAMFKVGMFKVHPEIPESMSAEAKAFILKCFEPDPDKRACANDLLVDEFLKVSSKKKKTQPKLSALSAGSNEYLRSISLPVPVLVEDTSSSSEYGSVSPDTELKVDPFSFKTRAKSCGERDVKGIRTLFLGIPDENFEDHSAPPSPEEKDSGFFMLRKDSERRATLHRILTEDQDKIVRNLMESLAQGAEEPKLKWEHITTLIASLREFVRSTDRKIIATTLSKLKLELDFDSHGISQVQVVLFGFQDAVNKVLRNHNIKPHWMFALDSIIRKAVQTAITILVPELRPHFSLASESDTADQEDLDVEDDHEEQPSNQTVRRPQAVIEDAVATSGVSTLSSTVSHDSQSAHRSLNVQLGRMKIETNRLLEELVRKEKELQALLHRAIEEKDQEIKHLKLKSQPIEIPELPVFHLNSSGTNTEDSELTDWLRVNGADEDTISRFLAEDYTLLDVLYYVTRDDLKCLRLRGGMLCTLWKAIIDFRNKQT
Sequence of AURKC (human) (Q9UQB9 whole entry, looked up): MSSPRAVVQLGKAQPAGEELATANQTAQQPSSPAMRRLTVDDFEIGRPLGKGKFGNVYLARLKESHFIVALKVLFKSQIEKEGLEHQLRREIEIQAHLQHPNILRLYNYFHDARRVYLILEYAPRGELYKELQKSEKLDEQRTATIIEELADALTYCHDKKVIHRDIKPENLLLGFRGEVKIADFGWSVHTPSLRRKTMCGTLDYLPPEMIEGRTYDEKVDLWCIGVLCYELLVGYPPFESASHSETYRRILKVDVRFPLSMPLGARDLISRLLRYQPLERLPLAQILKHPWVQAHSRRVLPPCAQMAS
Sequence of TGFBR1 (human) (P36897 whole entry, looked up): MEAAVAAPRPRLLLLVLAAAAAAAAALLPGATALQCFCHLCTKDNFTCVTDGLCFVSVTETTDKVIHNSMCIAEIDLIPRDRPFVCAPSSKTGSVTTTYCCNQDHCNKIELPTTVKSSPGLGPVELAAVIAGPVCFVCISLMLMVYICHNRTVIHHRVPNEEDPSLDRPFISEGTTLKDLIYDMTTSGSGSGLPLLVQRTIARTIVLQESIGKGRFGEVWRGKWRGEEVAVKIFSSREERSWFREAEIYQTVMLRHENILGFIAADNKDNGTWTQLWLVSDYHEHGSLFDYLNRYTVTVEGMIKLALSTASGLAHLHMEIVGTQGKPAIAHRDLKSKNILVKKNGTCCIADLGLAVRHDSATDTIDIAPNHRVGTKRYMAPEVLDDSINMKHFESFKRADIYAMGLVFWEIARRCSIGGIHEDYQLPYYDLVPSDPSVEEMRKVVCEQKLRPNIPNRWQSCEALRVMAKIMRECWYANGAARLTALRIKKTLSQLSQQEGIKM
Sequence of CAMK1G (human) (Q96NX5 whole entry, looked up): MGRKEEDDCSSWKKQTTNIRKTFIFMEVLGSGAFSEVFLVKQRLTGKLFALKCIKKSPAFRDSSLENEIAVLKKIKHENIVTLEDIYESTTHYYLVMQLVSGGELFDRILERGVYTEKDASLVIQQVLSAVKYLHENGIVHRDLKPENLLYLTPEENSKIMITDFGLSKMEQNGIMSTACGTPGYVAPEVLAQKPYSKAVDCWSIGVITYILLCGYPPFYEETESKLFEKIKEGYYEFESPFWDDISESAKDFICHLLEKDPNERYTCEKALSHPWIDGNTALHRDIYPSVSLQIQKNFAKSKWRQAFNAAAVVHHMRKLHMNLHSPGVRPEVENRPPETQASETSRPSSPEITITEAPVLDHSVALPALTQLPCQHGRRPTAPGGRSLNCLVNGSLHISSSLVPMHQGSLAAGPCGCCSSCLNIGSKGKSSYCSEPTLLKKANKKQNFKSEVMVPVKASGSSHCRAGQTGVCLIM
Sequence of PIM2 (human) (Q9P1W9 whole entry, looked up): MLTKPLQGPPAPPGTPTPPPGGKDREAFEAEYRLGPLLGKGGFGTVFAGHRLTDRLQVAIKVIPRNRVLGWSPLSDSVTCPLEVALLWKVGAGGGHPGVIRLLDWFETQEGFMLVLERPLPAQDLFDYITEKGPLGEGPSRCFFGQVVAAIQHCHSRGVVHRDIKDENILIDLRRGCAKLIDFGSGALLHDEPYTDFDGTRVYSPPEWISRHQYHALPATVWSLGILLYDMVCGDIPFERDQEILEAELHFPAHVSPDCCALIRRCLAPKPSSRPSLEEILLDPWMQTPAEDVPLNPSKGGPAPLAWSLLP

Row | Compound | residual activity (CAMK2B (human)) [%] | residual activity (RPS6KB1 (human)) [%] | residual activity (DAPK1 (human)) [%] | residual activity (TGFBR1 (human)) [%] | residual activity (LTK (human)) [%] | residual activity (MAPK3 (human)) [%] | residual activity (MAP3K7 TAB1 (human)) [%] | residual activity (STK33 (human)) [%] | residual activity (PTK2 (human)) [%] | residual activity (RPS6KA2 KD1 KD2 (human)) [%] | residual activity (CAMK1 (human)) [%] | residual activity (RIPK2 (human)) [%] | residual activity (AKT3 (human)) [%] | residual activity (PKN1 (human)) [%] | residual activity (STK17A (human)) [%] | residual activity (CAMK1G (human)) [%] | residual activity (CDK6 CCND1 (human)) [%] | residual activity (PHKG1 (human)) [%] | residual activity (CAMK2D (human)) [%] | residual activity (DYRK2 (human)) [%] | also measured
1 | COc1cc2c(cc1OC)-c1[nH]nc(Nc3cccc(F)c3)c1C2 | 101 | 99.1 | 90.7 | 101 | 93.3 | 93.7 | 94 | 99.5 | 88.2 | 91.4 | 98.4 | 76.3 | 96.1 | 106 | 87 | 101 | 92.9 | 89 | 103 | 95.3 | residual activity (CSNK2A2 (human)): 105%; residual activity (CDK9 CCNK (human)): 91.9%; residual activity (MAPK1 (human)): 85.1%; residual activity (IRAK4 (human)): 70%; residual activity (TXK (human)): 60.6%; residual activity (MAP4K4 (human)): 55.5%; residual activity (MAP3K9 (human)): 90%; residual activity (CDK5 CDK5R1 p35 (human)): 102%; residual activity (PIM2 (human)): 119%; residual activity (BRSK2 (human)): 92.1%; residual activity (EPHA4 (human)): 93.3%; residual activity (TEK (human)): 92.5%; residual activity (AURKC (human)): 94.5%; residual activity (MAP3K5 (human)): 99.9%; residual activity (CDK1 CCNB1 (human)): 101%; residual activity (STK4 (human)): 91.5%; residual activity (CSK (human)): 44.9%; residual activity (FES (human)): 95.6%; residual activity (PRKCZ (human)): 99.7%; residual activity (AXL (human)): 96.1%
2 | Nc1ncnc2c1cnn2-c1ccccc1 | 97.8 | 103 | 98.5 | 99.6 | 96.8 | 90.1 | 98.9 | 96.1 | 94.9 | 92.5 | 97.5 | 93.1 | 102 | 98.6 | 102 | 102 | 94.7 | 94.2 | 94.7 | 95.6 | residual activity (CDK9 CCNK (human)): 92.9%; residual activity (MAPK1 (human)): 85.4%; residual activity (IRAK4 (human)): 89.4%; residual activity (TXK (human)): 94.8%; residual activity (MAP4K4 (human)): 94.4%; residual activity (MAP3K9 (human)): 106%; residual activity (CDK5 CDK5R1 p35 (human)): 99.2%; residual activity (PIM2 (human)): 98.2%; residual activity (BRSK2 (human)): 95.3%; residual activity (EPHA4 (human)): 96.2%; residual activity (TEK (human)): 92.2%; residual activity (AURKC (human)): 98.2%; residual activity (MAP3K5 (human)): 100%; residual activity (STK4 (human)): 96.8%; residual activity (RAF1 (human)): 95.4%; residual activity (CSK (human)): 86.8%; residual activity (FES (human)): 99.7%; residual activity (PRKCZ (human)): 96.3%; residual activity (AXL (human)): 110%
3 | O=C(c1ccccc1)c1ccc(N2CCOCC2)cc1O | 105 | 95.3 | 92.5 | 94.3 | 107 | 102 | 101 | 108 | 109 | 102 | 97.5 | 95 | 105 | 104 | 97.9 | 96.1 | 97.8 | 97.4 | 95.1 | 96.8 | residual activity (CSNK2A2 (human)): 96.8%; residual activity (CDK9 CCNK (human)): 97.8%; residual activity (MAPK1 (human)): 96.7%; residual activity (IRAK4 (human)): 108%; residual activity (TXK (human)): 98.5%; residual activity (MAP4K4 (human)): 86.4%; residual activity (MAP3K9 (human)): 112%; residual activity (CDK5 CDK5R1 p35 (human)): 97%; residual activity (PIM2 (human)): 105%; residual activity (BRSK2 (human)): 95.5%; residual activity (EPHA4 (human)): 103%; residual activity (AURKC (human)): 102%; residual activity (MAP3K5 (human)): 97.8%; residual activity (CDK1 CCNB1 (human)): 92.3%; residual activity (STK4 (human)): 103%; residual activity (RAF1 (human)): 95.9%; residual activity (CSK (human)): 101%; residual activity (FES (human)): 95.2%; residual activity (PRKCZ (human)): 85%; residual activity (AXL (human)): 95.1%
